# Data published in patent publication US10941152B2, “Pyrazole compounds as modulators of FSHR and uses thereof” (TOCOPHERX, INC., priority 2014, dated 2021).
# Experiments:
# [1] = biological target: T1, follicle-stimulating hormone (FSH) receptor (Rattus norvegicus, UniProt P20395); assay: Rat granulosa EC50 FSH (Assay B); format: cell-based
# T1 construct: endogenous in cells; host or cells: rat granulosa cells
# T1 sequence (P20395 18-692): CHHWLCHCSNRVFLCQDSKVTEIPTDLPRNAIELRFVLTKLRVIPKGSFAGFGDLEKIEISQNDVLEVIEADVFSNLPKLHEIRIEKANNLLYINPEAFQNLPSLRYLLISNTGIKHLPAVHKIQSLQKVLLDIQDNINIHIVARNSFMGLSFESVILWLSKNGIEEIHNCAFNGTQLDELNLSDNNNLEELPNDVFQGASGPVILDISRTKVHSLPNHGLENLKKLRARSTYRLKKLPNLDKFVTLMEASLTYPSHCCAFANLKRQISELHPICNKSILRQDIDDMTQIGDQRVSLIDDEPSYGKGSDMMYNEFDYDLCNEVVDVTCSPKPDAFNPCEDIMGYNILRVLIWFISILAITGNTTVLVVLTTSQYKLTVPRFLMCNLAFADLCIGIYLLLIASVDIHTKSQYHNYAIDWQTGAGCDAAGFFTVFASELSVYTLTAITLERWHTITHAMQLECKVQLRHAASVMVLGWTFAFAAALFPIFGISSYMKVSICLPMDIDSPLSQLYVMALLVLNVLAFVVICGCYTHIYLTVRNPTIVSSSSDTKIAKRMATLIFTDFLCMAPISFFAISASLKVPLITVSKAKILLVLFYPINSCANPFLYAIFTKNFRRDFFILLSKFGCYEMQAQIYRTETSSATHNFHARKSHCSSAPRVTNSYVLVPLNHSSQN
# Protocol: Example 25. Rat granulosa EC50 FSH (Assay B)
# The assay was performed pursuant to the teaching of Yanofsky et al. (2006) Allosteric activation of the follicle-stimulating hormone (FSH) receptor by selective, nonpeptide agonists (JBC 281(19): 13226-13233, which is incorporated by reference in the disclosure of the invention).
# [2] = biological target: T2, FSHR (Homo sapiens, UniProt P23945); assay: EC50 of cyclic AMP production in CHO FSHR cells + EC20 FSH (Assay A); format: cell-based; conditions: cyclic AMP production in CHO FSHR cells + EC20 FSH (0.265 pM), HTRF
# T2 construct: expressed in transfected cells; host or cells: CHO (Cho-FSHR-LUC-1-1-43)
# T2 sequence (P23945 18-695): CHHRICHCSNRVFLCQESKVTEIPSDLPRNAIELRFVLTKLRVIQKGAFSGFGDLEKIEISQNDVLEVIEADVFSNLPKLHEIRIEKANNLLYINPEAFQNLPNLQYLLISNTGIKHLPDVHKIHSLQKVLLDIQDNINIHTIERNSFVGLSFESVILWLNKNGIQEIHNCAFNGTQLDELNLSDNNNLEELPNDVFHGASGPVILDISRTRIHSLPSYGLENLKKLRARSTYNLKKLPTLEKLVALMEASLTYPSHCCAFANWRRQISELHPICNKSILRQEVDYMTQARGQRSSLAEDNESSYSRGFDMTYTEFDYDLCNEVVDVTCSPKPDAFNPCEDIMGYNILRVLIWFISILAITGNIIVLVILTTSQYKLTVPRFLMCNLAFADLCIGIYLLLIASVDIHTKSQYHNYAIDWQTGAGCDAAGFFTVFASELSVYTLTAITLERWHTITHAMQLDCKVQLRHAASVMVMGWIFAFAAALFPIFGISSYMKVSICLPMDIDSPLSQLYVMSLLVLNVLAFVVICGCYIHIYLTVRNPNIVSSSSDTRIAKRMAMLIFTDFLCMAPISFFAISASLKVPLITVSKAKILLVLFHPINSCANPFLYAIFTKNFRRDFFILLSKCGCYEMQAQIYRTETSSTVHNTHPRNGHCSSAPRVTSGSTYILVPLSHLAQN
# In short: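 cAMP was detected by HTRF as the 665/620 nm ratio. The CHO-FSHR cells had first been exposed for 1 h at 37° C to test compound together with 0.265 pM FSH (EC20) and 200 μM IBMX. Responses are given as percent of the FSH standard maximum.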
SMILES,EC50 [1] [nM],EC50 [2] [nM]
"COc1cc2c(cc1-c1cc(C(N)=O)ncc1F)-c1c(c(C(=O)N(C)C(C)(C)C)nn1-c1cc(Cl)cc(Cl)c1)CO2 [Compound 68, N-tert-butyl-8-(2-carbamoyl-5-fluoropyridin-4-yl)-1-(3,5-dichlorophenyl)-7-methoxy-N-methyl-1,4-dihydrochromeno[4,3-c]pyrazole-3-carboxamide]",101 to 500,< 10
"COc1cc2c(cc1-c1ccn(C)n1)-c1c(c(C(=O)N3CC[S+]([O-])CC3(C)C)nn1-c1ccsc1)CO2 (stereo not drawn) [Compound 56, (1-(thiophen-3-yl)-7-methoxy-8-(1-methyl-1H-pyrazol-3-yl)-1,4-dihydrochromeno[4,3-c]pyrazol-3-yl)(S-oxo-3,3-dimethylthiomorpholino)methanone]",101 to 500,10 to 100
"COc1cc2c(cc1-c1cncc(C(N)=O)c1C)-c1c(c(C(=O)N(C)C(C)(C)C#N)nn1-c1cc(F)cc(F)c1)CO2 [Compound 119, 8-(5-carbamoyl-4-methylpyridin-3-yl)-N-(2-cyanopropan-2-yl)-1-(3,5-difluorophenyl)-7-methoxy-N-methyl-1,4-dihydrochromeno[4,3-c]pyrazole-3-carboxamide]",101 to 500,< 10
COc1cc2c(cc1-c1cncc(C(N)=O)c1)-c1c(c(C(=O)N3CCOCC3(C)C)nn1-c1cc(Cl)cc(Cl)c1)CO2 [Compound 169],101 to 500,< 10
"COc1cc2c(cc1-c1ccc(N)nc1)-c1c(c(C(=O)N(C)C(C)(C)C)nn1-c1cc(Cl)cc(Cl)c1)CO2 [Compound 16, 8-(6-aminopyridin-3-yl)-N-tert-butyl-1-(3,5-dichlorophenyl)-7-methoxy-N-methyl-1,4-dihydrochromeno[4,3-c]pyrazole-3-carboxamide]",101 to 500,< 10
"COc1cc(Cl)cc(-n2nc(C(=O)N3CCOCC3(C)C)c3c2-c2cc(-c4cncc(C#N)c4)c(OC)cc2OC3)c1 [Compound 34, 5-(1-(3-chloro-5-methoxyphenyl)-3-(3,3-dimethylmorpholine-4-carbonyl)-7-methoxy-1,4-dihydrochromeno[4,3-c]pyrazol-8-yl)nicotinonitrile]",10 to 100,< 10
"CCN(C(=O)c1nn(-c2cc(Cl)cc(Cl)c2)c2c1COc1cc(OC)c(-c3ccn(C)n3)cc1-2)S(=O)(=O)CC [Compound 188, 1-(3,5-dichlorophenyl)-N-ethyl-N-(ethylsulfonyl)-7-methoxy-8-(1-methyl-1H-pyrazol-3-yl)-1,4-dihydrochromeno[4,3-c]pyrazole-3-carboxamide]",101 to 500,< 10
"COc1cc2c(cc1-c1ccn(C)n1)-c1c(c(C(=O)N(C)C(C)(C)C#N)nn1-c1cc(Cl)cc(Cl)c1)CO2 [Compound 132, N-(2-cyanopropan-2-yl)-1-(3,5-dichlorophenyl)-7-methoxy-N-methyl-8-(1-methyl-1H-pyrazol-3-yl)-1,4-dihydrochromeno[4,3-c]pyrazole-3-carboxamide]",101 to 500,10 to 100
COc1cc(OC)cc(-n2nc(C(=O)N(C)C(C)(C)C)c3c2-c2cc(-c4cc(C(N)=O)c[n+]([O-])c4)c(OC)cc2OC3)c1 [Compound 175],10 to 100,< 10
"COc1cc(OC)cc(-n2nc(C(=O)N3CCOCC3(C)C)c3c2-c2cc(-c4cncc(C#N)c4)c(OC)cc2OC3)c1 [Compound 44, 5-(1-(3,5-dimethoxyphenyl)-3-(3,3-dimethylmorpholine-4-carbonyl)-7-methoxy-1,4-dihydrochromeno[4,3-c]pyrazol-8-yl)nicotinonitrile]",10 to 100,< 10
"COc1cc2c(cc1-c1nccnc1C#N)-c1c(c(C(=O)N(C)C(C)(C)C)nn1-c1cc(Cl)cc(Cl)c1)CO2 [Compound 112, N-tert-butyl-8-(3-cyanopyrazin-2-yl)-1-(3,5-dichlorophenyl)-7-methoxy-N-methyl-1,4-dihydrochromeno[4,3-c]pyrazole-3-carboxamide]",101 to 500,10 to 100
"COc1cc2c(cc1-c1cccnc1F)-c1c(c(C(=O)N3CC[S+]([O-])CC3(C)C)nn1-c1cc(Cl)cc(Cl)c1)CO2 (stereo not drawn) [Compound 6, (1-(3,5-dichlorophenyl)-8-(2-fluoropyridin-3-yl)-7-methoxy-1H,4H-chromeno[4,3-c]pyrazol-3-yl)(S-oxo-3,3-dimethylthiomorpholino)methanone]",101 to 500,< 10

# More lines, now with the values ahead:
EC50 [1] [nM],EC50 [2] [nM],SMILES
10 to 100,< 10,"COc1cc2c(cc1-c1cccnc1C#N)-c1c(c(C(=O)N(C)C(C)(C)C)nn1-c1cc(Cl)cc(Cl)c1)CO2 [Compound 14, N-tert-butyl-8-(2-cyanopyridin-3-yl)-1-(3,5-dichlorophenyl)-7-methoxy-N-methyl-1,4-dihydrochromeno[4,3-c]pyrazole-3-carboxamide]"
10 to 100,< 10,"COc1cc2c(cc1-c1cncc(C#N)c1)-c1c(c(C(=O)N3CCOCC3(C)C)nn1-c1cc(Cl)cc(Cl)c1)CO2 [Compound 12, 5-(1-(3,5-dichlorophenyl)-3-(3,3-dimethylmorpholine-4-carbonyl)-7-methoxy-1,4-dihydrochromeno[4,3-c]pyrazol-8-yl)nicotinonitrile]"
10 to 100,10 to 100,"COc1cc2c(cc1-c1cccc(CO)c1F)-c1c(c(C(=O)N(C)C(C)(C)C)nn1-c1cc(Cl)cc(Cl)c1)CO2 [Compound 195, N-tert-butyl-1-(3,5-dichlorophenyl)-8-(2-fluoro-3-(hydroxymethyl)phenyl)-7-methoxy-N-methyl-1,4-dihydrochromeno[4,3-c]pyrazole-3-carboxamide]"
10 to 100,< 10,COc1cc2c(cc1-c1cncc(C(N)=O)c1)-c1c(c(C(=O)N(C)C(C)(C)C)nn1-c1cc(C)cc(F)c1)CO2 [Compound 173]
10 to 100,< 10,"COc1cc(OC)cc(-n2nc(C(=O)N3CCOCC3(C)C)c3c2-c2cc(-c4cccnc4F)c(OC)cc2OC3)c1 [Compound 42, (1-(3,5-dimethoxyphenyl)-8-(2-fluoropyridin-3-yl)-7-methoxy-1,4-dihydrochromeno[4,3-c]pyrazol-3-yl)(3,3-dimethylmorpholino)methanone]"
10 to 100,< 10,"COc1cc2c(cc1-c1cncc(CO)c1)-c1c(c(C(=O)N3CCOCC3(C)C)nn1-c1cc(Cl)cc(Cl)c1)CO2 [Compound 24, (1-(3,5-dichlorophenyl)-8-(5-(hydroxymethyl)pyridin-3-yl)-7-methoxy-1,4-dihydrochromeno[4,3-c]pyrazol-3-yl)(3,3-dimethylmorpholino)methanone]"
10 to 100,< 10,"COc1cc2c(cc1-c1cc(C(N)=O)c[n+]([O-])c1)-c1c(c(C(=O)N3CCOCC3(C)C)nn1-c1cc(Cl)cc(Cl)c1)CO2 [Compound 174, 3-carbamoyl-5-(1-(3,5-dichlorophenyl)-3-(3,3-dimethylmorpholine-4-carbonyl)-7-methoxy-1,4-dihydrochromeno[4,3-c]pyrazol-8-yl)pyridine 1-oxide]"
10 to 100,< 10,COc1cc2c(cc1-c1nn(C)cc1C#N)-c1c(c(C(=O)N(C)C(C)(C)C)nn1-c1cc(F)cc(F)c1)CO2 [Compound 149]
10 to 100,< 10,"COc1cc(-c2cc3c(cc2OC)OCc2c(C(=O)N(C)C(C)(C)C)nn(-c4cc(Cl)cc(Cl)c4)c2-3)cc(C(N)=O)n1 [Compound 117, N-tert-butyl-8-(2-carbamoyl-6-methoxypyridin-4-yl)-1-(3,5-dichlorophenyl)-7-methoxy-N-methyl-1,4-dihydrochromeno[4,3-c]pyrazole-3-carboxamide]"
